# Measurements taken from PMC6151961 (Journal of Enzyme Inhibition and Medicinal Chemistry, 2018).
# Read-outs that look alike come from different tables or passages of the source.
# Columns and labels:
# [1] = molecular target: T1, CA IX (Homo sapiens, UniProt Q16790); test: biochemical
# [2] = molecular target: T1, CA IX; details: cited from earlier work
# [3] = experimental value from the library Ki (IDs A…, B…), values equal log10 of Ki in nM, read-out: pKi (exp.) (converted)
# [4] = observed Ki of library compounds (IDs A…, B…), ref ChEMBL and BindingDB, read-out: Ki
# [5] = read-out: pKi (exp.) (converted)
# [6] = library compounds with IDs A… and B…, from observed Ki (nM), read-out: pKi (exp.) (converted)
# [7] = library compounds with IDs A… and B…, observed Ki, ref ChEMBL, BindingDB, read-out: Ki
# [8] = library compounds with IDs A… and B…, from observed Ki (nM)
# [9] = experimental value used for the QSPR model, library compounds (IDs A…, B…), equals log10 of Ki in nM
smiles,measurement,setting,value
CC(=O)[C@H]1NN(c2ccccc2)[C@H]([C@H](C#N)C(=O)Nc2ccc(S(N)(=O)=O)cc2)S1 [A0013],Ki,[1]; [3],0.33 nM
same,Ki,[2]; [4],0.33 nM
NS(=O)(=O)Nc1ccc(NC(=O)Nc2ccc(Cl)cc2)cc1 [A0149],Ki,"[1]; experimental value used for the QSPR model, library compounds (IDs A…, B…), equals log10 of Ki in nM, read-out: pKi (exp.) (converted)",3 nM
same,Ki,[2]; [4],3 nM
NS(=O)(=O)c1nnc(NC(=O)[C@]23C[C@H]4C[C@H](C[C@H](C4)C2)C3)s1 [A0389],Ki,[1]; [5],6.4 nM
same,Ki,[2]; read-out: Ki,6.4 nM
C[C@H](Nc1nc(NCc2ccc(S(N)(=O)=O)cc2)nc(N[C@H](C)C(=O)O)n1)C(=O)O [A0552],Ki,[1]; [5],8.49 nM
same,Ki,[2]; read-out: Ki,8.5 nM
CN1N[C@@H](S(N)(=O)=O)S[C@H]1NC(=O)CCSSCCC(=O)/N=c1\sc(S(N)(=O)=O)nn1C [A0620],Ki,[1]; [3],9.29 nM
same,Ki,[2]; [4],9.3 nM
N#C[C@H]1C(COc2ccc(S(N)(=O)=O)cc2)=NON1O [A0707],Ki,[1]; [6],11.3 nM
same,Ki,[2]; [7],11.3 nM
NS(=O)(=O)c1ccc(C(=O)NNC(=O)Nc2ccc([C@]34C[C@H]5C[C@H](C[C@H](C5)C3)C4)cc2)cc1 [A0952],Ki,[1]; [5],24 nM
same,Ki,[2]; read-out: Ki,24 nM
C[C@@H](Sc1nc(-c2ccc(Cl)c(F)c2)c(C#N)c(=O)[nH]1)C(=O)Nc1ccc(S(N)(=O)=O)cc1 [A1157],Ki,[1]; [3],37 nM
same,Ki,[2]; [4],37 nM
NS(=O)(=O)OC[C@H]1O[C@H](O)[C@H](O)[C@@H](O)[C@H]1O [A1346],Ki,[1]; [3],61.9 nM
same,Ki,[2]; [4],62 nM
C[C@]12CC[C@@H](OS(N)(=O)=O)CC1=C[C@@H](O)[C@@H]1[C@@H]2CC[C@]2(C)C(=O)CC[C@@H]12 [A1368],Ki,[1],65 nM
same,Ki,[2],65 nM
NOS(=O)(=O)N[C@H]1C=C[C@H](O)[C@@H](CO)O1 [A1502],Ki,[1]; [3],84.9 nM
same,Ki,[2]; [4],85 nM
NOS(=O)(=O)N[C@H]1C=C[C@H](O)CO1 [A1544],Ki,[1]; [5],91 nM
same,Ki,[2]; read-out: Ki,91 nM
COC(=O)[C@H]1C[C@H](OS(N)(=O)=O)CN1S(=O)(=O)[C@H]1O[C@H](COC(C)=O)[C@@H](OC(C)=O)[C@H](OC(C)=O)[C@H]1OC(C)=O [B0015],Ki,[1]; [6],2 nM
same,Ki,[2]; [7],2 nM
NS(=O)(=O)c1ccc(-n2cc(/C=N/Nc3nc(-c4cc5cc(Cl)ccc5oc4=O)cs3)c(-c3ccc(F)cc3)n2)cc1 [B0019],Ki,[1]; [3],2.5 nM
same,Ki,[2]; [4],2.5 nM
C[C@H](NC(=O)Nc1ccc(NS(N)(=O)=O)cc1)c1cccc2ccccc12 [B0045],Ki,[1]; [6],3.4 nM
same,Ki,[2]; [7],3.4 nM
CC(=O)OC[C@H]1O[C@@H]([S+]([O-])Cc2cn(-c3ccc(S(N)(=O)=O)cc3)nn2)[C@H](OC(C)=O)[C@@H](OC(C)=O)[C@H]1OC(C)=O (some centres unmarked) [B0152],log10 of Ki in nM,[1],0.886
COc1ccc2c(c1)/C(=N\c1ccc(NC(=O)Nc3ccc(S(N)(=O)=O)cc3)cc1)C(=O)N2 [B0174],log10 of Ki in nM,[1]; [8],0.929
CC(=O)OC[C@H]1O[C@@H]([S+]([O-])Cc2cn(-c3ccc(S(N)(=O)=O)cc3)nn2)[C@H](OC(C)=O)[C@@H](OC(C)=O)[C@@H]1OC(C)=O (some centres unmarked) [B0212],log10 of Ki in nM,[1],0.996
NS(=O)(=O)c1cc(-c2cnc(C3CC3)o2)cs1 [B0238],log10 of Ki in nM,[1]; [9],1.114
NS(=O)(=O)c1cc(-c2cnc(C(=O)N3CCOCC3)o2)cs1 [B0343],log10 of Ki in nM,[1]; [9],1.447
NS(=O)(=O)c1ccc(NC(=O)Cn2ccc(=O)c(S(N)(=O)=O)c2)cc1 [B0371],log10 of Ki in nM,[1],1.491
COc1ccc2c(=O)n(-c3ccc(S(N)(=O)=O)cc3)c(S)nc2c1 [B0440],log10 of Ki in nM,[1],1.653
NOC(=O)c1cc(Cl)c(Cl)c(C(=O)ON)c1 [B0452],log10 of Ki in nM,[1],1.699
NS(=O)(=O)c1ccc(-c2cnc(C3CCC3)o2)s1 [B0649],log10 of Ki in nM,"[1]; experimental value from the library Ki (IDs A…, B…), values equal log10 of Ki in nM",2.193
Cc1ccc2c(c1)/C(=N\c1ccc(C(=O)Nc3ccc(S(N)(=O)=O)cc3)cc1)C(=O)N2 [B0670],log10 of Ki in nM,[1]; [9],2.303
Cc1ccc(-c2cnc(C3CC3)o2)cc1S(N)(=O)=O [B0710],log10 of Ki in nM,[1]; [8],2.502
CC1(C)CC(=O)C2=C(C1)N(c1ccc(S(N)(=O)=O)cc1)C1=C(C(=O)CC(C)(C)C1)C2c1ccc([N+](=O)[O-])cc1 [B0775],log10 of Ki in nM,[1]; [9],3.009
Cc1cc(C)oc(=O)c1 [B0786],log10 of Ki in nM,[1]; [9],3.393
O=NCc1c(O)ccc(-c2ccc(O)cc2)c1Cl [B0828],log10 of Ki in nM,[1]; [9],3.780
